# Data: patent US9512139B2, “Conformationally constrained, fully synthetic macrocyclic compounds” (POLYPHOR AG, priority 2009, dated 2016)
# Like-named read-outs stand apart in the source and are kept apart here.
# What was measured:
# [1] = amide bond
# [2] = Metabolic stability assay, CD-1 mouse microsomes; assay type: in vitro ADME; details: CD-1, mouse, microsomes; for half-life at 10 µM: both sexes; for Metabolic Stability 60 min mouse [% remain.]: both, 1 h, 10 µM
# [3] = in vitro; assay type: in vitro ADME, human; details: human, plasma; for Plasma Stability T½ [min] hum / Plasma Stability 240 min hum [% remain.]: 10 µM; for Plasma Stability 240 min hum [% remain.]: 4 h
# Protocol: Example compounds were dissolved in DMSO/H2O 90:10 to a final concentration of 10 mM for plasma stability determination and metabolic stability determination.
# Human plasma (3-5 donors, Blutspendedienst SRK, Basel) and CD-1 mouse plasma (mixed gender pool >50 animals, Innovative Research, CA, USA) are both sodium citrate stabilized. The assay is performed in triplicates at 10 μM compound concentration and 37° C. Samples are taken at 0, 15, 60, and 240 minutes and stopped by precipitation with 2 volumes of acetonitrile. The supernatant is collected, evaporated and reconstituted in a 5% acetonitrile solution to be analyzed by HPLC/MS/MS. The resulting peak area counts are expressed in percent of the 0 value and used to determine the endpoint stability in % and the half life in minutes. In order to monitor assay integrity the degradation of propantheline is assayed with every experimental set.
# [4] = target: T1, Prostaglandin F (FP) Receptor (Homo sapiens, UniProt P43088); assay: Ca2+ assay (FLIPR) for the GPCR prostaglandin F (FP) receptor, agonist and antagonist mode; assay type: cell-based
# T1 construct: host or cells: Ca2+ optimized hematopoietic cell lines (rat)
# Method in brief: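 Ca2+-optimized rat hematopoietic cells carrying the receptor were loaded with Fluo-8 in HBSS/20 mM HEPES/2.5 mM probenecid and read on FLIPR. Agonist mode: 10 min compound incubation at 25 °C, % activation relative to Emax. Antagonist mode: stimulation at EC80 of the reference agonist (prostaglandin F2α for FP, 2MeSATP for P2Y1), fluorescence monitored 180 s.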
# [5] = Metabolic stability assay, human microsomes; assay type: in vitro ADME; details: human, microsomes; for half-life at 10 µM: both sexes; for Metabolic Stability 60 min hum [% remain.]: both, 1 h, 10 µM
# [6] = in vitro; assay type: in vitro ADME, mouse; details: both, CD-1, mouse, plasma, 10 µM; for Plasma Stability 240 min mouse [% remain.]: 4 h
# 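Wherever Plasma Stability 240 min mouse [% remain.] is given: sodium citrate stabilized mouse plasma, parent compound quantified by HPLC/MS/MS relative to its peak area at time zero, run in triplicate.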
# 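Wherever Plasma Stability T½ [min] mouse is given: sodium citrate stabilized mouse plasma, parent compound quantified by HPLC/MS/MS relative to its peak area at time zero, run in triplicate.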
# T1 sequence (P43088 whole entry): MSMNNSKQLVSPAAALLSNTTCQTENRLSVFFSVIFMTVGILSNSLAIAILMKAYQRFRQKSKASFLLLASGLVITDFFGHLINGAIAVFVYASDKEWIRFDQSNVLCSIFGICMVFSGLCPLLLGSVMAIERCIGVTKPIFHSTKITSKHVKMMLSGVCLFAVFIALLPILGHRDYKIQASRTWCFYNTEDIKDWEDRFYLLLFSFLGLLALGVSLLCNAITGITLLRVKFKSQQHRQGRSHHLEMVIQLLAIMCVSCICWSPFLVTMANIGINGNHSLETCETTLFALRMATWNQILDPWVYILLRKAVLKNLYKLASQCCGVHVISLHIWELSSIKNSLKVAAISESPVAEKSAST
compound,measurement,setting,value
CN1CC(=O)N2C[C@@H](NC(=O)OC(C)(C)C)C[C@H]2COc2ccc(F)cc2C(=O)N(C)[C@H](C(=O)OCc2ccccc2)CCC1=O,"ring closure, yield of all isomers","[1]; from CNCC(=O)N1C[C@@H](NC(=O)OC(C)(C)C)C[C@H]1COc1ccc(F)cc1C(=O)N(C)[C@@H](CCC(=O)O)C(=O)OCc1ccccc1, FDPP, DMF, 8.44 mM, 25.0 °C, 20.0 h",94%
O=C1NCCC[C@H](O)C(=O)N2C[C@@H](OCc3ccc(Br)cc3)C[C@H]2COc2cccc1c2,"ring closure, yield of all isomers","[1]; from O=C(NCCC[C@H](O)C(=O)O)c1cccc(OC[C@@H]2C[C@H](OCc3ccc(Br)cc3)CN2)c1, T3P, i-Pr2NEt, CH2Cl2, 1.0 mM",47%
CN1CC(=O)N2C[C@H](NC(=O)OC(C)(C)C)C[C@H]2COc2ccsc2C(=O)N(C)[C@H](C(=O)OCc2ccccc2)CCC1=O,"ring closure, yield of all isomers","[1]; from CNCC(=O)N1C[C@H](NC(=O)OC(C)(C)C)C[C@H]1COc1ccsc1C(=O)N(C)[C@@H](CCC(=O)O)C(=O)OCc1ccccc1, T3P, CH2Cl2, 10.0 mM, 25.0 °C, 1.0 h",69%
CC(C)(C)OC(=O)N[C@H]1CCCCSc2cccc(c2)OC[C@@H]2C[C@H](OCc3ccc(Br)cc3)CN2C1=O,"ring closure, yield of all isomers","[1]; from CC(C)(C)OC(=O)N[C@@H](CCCCSc1cccc(OC[C@@H]2C[C@H](OCc3ccc(Br)cc3)CN2)c1)C(=O)O, T3P, i-Pr2NEt, CH2Cl2, 2.0 mM, 25.0 °C, 4.0 h",99%
CN1C[C@H](NC(=O)OCc2ccccc2)C(=O)N(C)CC(=O)N2C[C@@H](NC(=O)OC(C)(C)C)C[C@H]2COc2cccc(c2)C1=O,"ring closure, yield of all isomers","[1]; from CNCC(=O)N1C[C@@H](NC(=O)OC(C)(C)C)C[C@H]1COc1cccc(C(=O)N(C)C[C@H](NC(=O)OCc2ccccc2)C(=O)O)c1, T3P / i-Pr2NEt, CH2Cl2, 0.96 mM",73%
same,"ring closure, yield of all isomers","[1]; from CNCC(=O)N1C[C@@H](NC(=O)OC(C)(C)C)C[C@H]1COc1cccc(C(=O)N(C)C[C@H](NC(=O)OCc2ccccc2)C(=O)O)c1, T3P / i-Pr2NEt, CH2Cl2, 1.0 mM",39%
"CCCCCCCCCC(=O)N[C@H]1CCCN(C)C(=O)c2cccc(c2)OC[C@@H]2C[C@H](NC(=O)Nc3cccc(N(C)C)c3)CN2C1=O [Ex. 511, N-[(4S,6S,10S)-6-({[3-(dimethylamino)anilino]carbonyl}amino)-14-methyl-9,15-dioxo-2-oxa-8,14-diazatricyclo[14.3.1.0^4,8]icosa-1(20),16,18-trien-10-yl]decanamide]",half-life at 10 µM,[2],14 min
same,Metabolic Stability 60 min mouse [% remain.],[2],14 % remain.
same,Plasma Stability T½ [min] hum,[3],> 240 min
same,Plasma Stability 240 min hum [% remain.],[3],100 % remain.
same,IC50,[4],59 nM
same,inhibition at 10 µM,[4],99%
same,half-life at 10 µM,[5],2 min
same,Metabolic Stability 60 min hum [% remain.],[5],1 % remain.
O=C(N[C@H]1CCCNC(=O)c2cccc(c2)OC[C@@H]2C[C@H](Oc3ccccc3)CN2C1=O)OCc1ccccc1,"ring closure, yield of all isomers","[1]; from O=C(N[C@@H](CCCNC(=O)c1cccc(OC[C@@H]2C[C@H](Oc3ccccc3)CN2)c1)C(=O)O)OCc1ccccc1, HATU, HOAt, i-Pr2NEt, DMF, 0.98 mM, 25.0 °C, 20.0 h",88%
CN1CC(=O)N2CCN(C(=O)OC(C)(C)C)C[C@H]2COc2ccc(F)cc2C(=O)N(C)[C@H](C(=O)OCc2ccccc2)CCC1=O,"ring closure, yield of all isomers","[1]; from CN(CC(=O)O)C(=O)CC[C@@H](C(=O)OCc1ccccc1)N(C)C(=O)c1cc(F)ccc1OC[C@@H]1CN(C(=O)OC(C)(C)C)CCN1, T3P / i-Pr2NEt, CH2Cl2, 10.0 mM",90%
CN1CC(=O)N2C[C@H](NC(=O)OC(C)(C)C)C[C@H]2COc2ccc(F)cc2C(=O)N(C)[C@@H](C(=O)OCc2ccccc2)CCC1=O,"ring closure, yield of all isomers","[1]; from CNCC(=O)N1C[C@H](NC(=O)OC(C)(C)C)C[C@H]1COc1ccc(F)cc1C(=O)N(C)[C@H](CCC(=O)O)C(=O)OCc1ccccc1, T3P / i-Pr2NEt, CH2Cl2, 5.08 mM",60%
CN1CC(=O)N2C[C@H](NC(=O)OC(C)(C)C)C[C@H]2CSc2cccc(c2)C(=O)N(C)[C@H](C(=O)OCc2ccccc2)CCC1=O,"ring closure, yield of all isomers","[1]; from CNCC(=O)N1C[C@H](NC(=O)OC(C)(C)C)C[C@H]1CSc1cccc(C(=O)N(C)[C@@H](CCC(=O)O)C(=O)OCc2ccccc2)c1, T3P, i-Pr2NEt, CH2Cl2, 10.0 mM, 25.0 °C, 3.0 h",57%
"CN1CCC[C@H](NC(=O)Cc2cccc(-c3ccccc3)c2)C(=O)N2C[C@@H](NC(=O)Nc3cccc(N(C)C)c3)C[C@H]2COc2cccc(c2)C1=O [Ex. 525, 2-[1,1′-biphenyl]-3-yl-N-[(4S,6S,10S)-6-({[3-(dimethylamino)anilino]carbonyl}amino)-14-methyl-9,15-dioxo-2-oxa-8,14-diazatricyclo[14.3.1.0^4,8]icosa-1(20),16,18-trien-10-yl]acetamide]",half-life at 10 µM,[2],25 min
same,Metabolic Stability 60 min mouse [% remain.],[2],29 % remain.
same,Plasma Stability T½ [min] hum,[3],> 240 min
same,Plasma Stability 240 min hum [% remain.],[3],100 % remain.
same,IC50,[4],94 nM
same,inhibition at 10 µM,[4],99%
same,half-life at 10 µM,[5],16 min
same,Metabolic Stability 60 min hum [% remain.],[5],13 % remain.
"CN1CCC[C@H](NC(=O)Cc2cccc3ccccc23)C(=O)N2C[C@@H](NC(=O)Cc3ccc4ccccc4c3)C[C@H]2COc2cccc(c2)C1=O [Ex. 505, N-[(4S,6S,10S)-14-methyl-6-{[2-(2-naphthyl)acetyl]amino}-9,15-dioxo-2-oxa-8,14-diazatricyclo[14.3.1.0^4,8]icosa-1(20),16,18-trien-10-yl]-2-(1-naphthyl)acetamide]",half-life at 10 µM,[2],13 min
same,Metabolic Stability 60 min mouse [% remain.],[2],3 % remain.
same,Plasma Stability T½ [min] hum,[3],> 240 min
same,Plasma Stability 240 min hum [% remain.],[3],100 % remain.
same,Plasma Stability T½ [min] mouse,[6],> 240 min
same,Plasma Stability 240 min mouse [% remain.],[6],98 % remain.
same,IC50,[4],640 nM
same,inhibition at 10 µM,[4],47%
same,half-life at 10 µM,[5],21 min
same,Metabolic Stability 60 min hum [% remain.],[5],9 % remain.
"CN1CCC[C@H](NS(=O)(=O)c2ccc(-c3ccccc3)cc2)C(=O)N2C[C@@H](NC(=O)Cc3ccc4ccccc4c3)C[C@H]2COc2cccc(c2)C1=O [Ex. 527, N-[(4S,6S,10S)-10-[([1,1′-biphenyl]-4-ylsulfonyl)amino]-14-methyl-9,15-dioxo-2-oxa-8,14-diazatricyclo[14.3.1.0^4,8]icosa-1(20),16,18-trien-6-yl]-2-(2-naphthyl)acetamide]",half-life at 10 µM,[2],20 min
same,Metabolic Stability 60 min mouse [% remain.],[2],24 % remain.
same,half-life at 10 µM,[3],109 min
same,Plasma Stability 240 min hum [% remain.],[3],26 % remain.
same,IC50,[4],204 nM
same,inhibition at 10 µM,[4],73%
same,half-life at 10 µM,[5],22 min
same,Metabolic Stability 60 min hum [% remain.],[5],23 % remain.
"CN1C[C@H](NC(=O)OCc2ccccc2)C(=O)N(C)CC(=O)N2C[C@@H](NC(=O)Cc3c[nH]c4ccccc34)C[C@H]2COc2cccc(c2)C1=O [Ex. 200, benzyl N-[(4S,6S,13S)-6-{[2-(1H-indol-3-yl)acetyl]amino}-11,15-dimethyl-9,12,16-trioxo-2-oxa-8,11,15-triazatricyclo[15.3.1.0^4,8]henicosa-1(21),17,19-trien-13-yl]carbamate]",half-life at 10 µM,[2],30 min
same,Metabolic Stability 60 min mouse [% remain.],[2],26 % remain.
same,Plasma Stability T½ [min] hum,[3],> 240 min
same,Plasma Stability 240 min hum [% remain.],[3],91 % remain.
same,Plasma Stability T½ [min] mouse,[6],> 240 min
same,Plasma Stability 240 min mouse [% remain.],[6],100 % remain.
same,IC50,[4],28000 nM
same,inhibition at 10 µM,[4],38%
same,half-life at 10 µM,[5],27 min
same,Metabolic Stability 60 min hum [% remain.],[5],12 % remain.
"CN1CCC[C@H](NC(=O)Cc2cccc3ccccc23)C(=O)N2C[C@@H](NC(=O)Nc3cccc(N(C)C)c3)C[C@H]2COc2cccc(c2)C1=O [Ex. 512, N-[(4S,6S,10S)-6-({[3-(dimethylamino)anilino]carbonyl}amino)-14-methyl-9,15-dioxo-2-oxa-8,14-diazatricyclo[14.3.1.0^4,8]icosa-1(20),16,18-trien-10-yl]-2-(1-naphthyl)acetamide]",half-life at 10 µM,[2],12 min
same,Metabolic Stability 60 min mouse [% remain.],[2],10 % remain.
same,Plasma Stability T½ [min] hum,[3],> 240 min
same,Plasma Stability 240 min hum [% remain.],[3],86 % remain.
same,IC50,[4],120 nM
same,inhibition at 10 µM,[4],97%
same,half-life at 10 µM,[5],17 min
same,Metabolic Stability 60 min hum [% remain.],[5],8 % remain.
"CN1CCC[C@H](NC(=O)OCc2ccccc2)C(=O)N2C[C@@H](NC(=O)Cc3ccc4ccccc4c3)C[C@H]2COc2cccc(c2)C1=O [Ex. 184, benzyl N-[(4S,6S,10S)-14-methyl-6-{[2-(2-naphthyl)acetyl]amino}-9,15-dioxo-2-oxa-8,14-diazatricyclo[14.3.1.0^4,8]icosa-1(20),16,18-trien-10-yl]carbamate]",half-life at 10 µM,[2],22 min
same,Metabolic Stability 60 min mouse [% remain.],[2],0 % remain.
same,Plasma Stability T½ [min] hum,[3],> 240 min
same,Plasma Stability 240 min hum [% remain.],[3],66 % remain.
same,Plasma Stability T½ [min] mouse,[6],> 240 min
same,Plasma Stability 240 min mouse [% remain.],[6],58 % remain.
same,IC50,[4],520 nM
same,inhibition at 10 µM,[4],74%
same,half-life at 10 µM,[5],15 min
same,Metabolic Stability 60 min hum [% remain.],[5],0 % remain.
"CCCCCCCCCC(=O)N[C@H]1CN(C)C(=O)c2cccc(c2)OC[C@@H]2C[C@H](NC(=O)Cc3c[nH]c4ccccc34)CN2C(=O)CN(C)C1=O [Ex. 213, N-[(4S,6S,13S)-6-{[2-(1H-indol-3-yl)acetyl]amino}-11,15-dimethyl-9,12,16-trioxo-2-oxa-8,11,15-triazatricyclo[15.3.1.0^4,8]henicosa-1(21),17,19-trien-13-yl]decanamide]",half-life at 10 µM,[2],17 min
same,Metabolic Stability 60 min mouse [% remain.],[2],4 % remain.
same,IC50,[4],1700 nM
same,inhibition at 10 µM,[4],78%
same,half-life at 10 µM,[5],16 min
same,Metabolic Stability 60 min hum [% remain.],[5],0 % remain.
